Data taken from ChEMBL document CHEMBL1201862, “PubChem BioAssay data set” (2004).
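Exposure lasted 48 hours, with cells grown in 96-well plates and compounds tested at five concentrations. Abbreviation: GI50, concentration required for 50% inhibition of growth.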 Calls of active or inactive are those of the source. Cut-off read from the data, not from the text of the source: active = GI50 up to about 1.1 µM and inactive = higher.

How the values were obtained:
Assay in all cases: NCI anticancer screen, dose series, 48 h
HL-60 = test system: HL-60
SK-OV-3 = test system: SK-OV-3
TK-10 = test system: TK-10
SW-620 = test system: SW-620
SF-539 = test system: SF-539
OVCAR-3 = test system: OVCAR-3
SF-295 = test system: SF-295
OVCAR-5 = test system: OVCAR-5
ACHN = test system: ACHN
HCC 2998 = test system: HCC 2998
RPMI-8226 = test system: RPMI-8226
SNB-75 = test system: SNB-75
SR = test system: SR
SK-MEL-28 = test system: SK-MEL-28
COLO 205 = test system: COLO 205
UO-31 = test system: UO-31
U-251 = test system: U-251
UACC-62 = test system: UACC-62
IGROV-1 = test system: IGROV-1
HOP-62 = test system: HOP-62

| SMILES | GI50 (HL-60) | GI50 (SK-OV-3) | GI50 (TK-10) | GI50 (SW-620) | GI50 (SF-539) | GI50 (OVCAR-3) | GI50 (SF-295) | GI50 (OVCAR-5) | GI50 (ACHN) | GI50 (HCC 2998) | GI50 (RPMI-8226) | GI50 (SNB-75) | GI50 (SR) | GI50 (SK-MEL-28) | GI50 (COLO 205) | GI50 (UO-31) | GI50 (U-251) | GI50 (UACC-62) | GI50 (IGROV-1) | GI50 (HOP-62) |
| --- | --- | --- | --- | --- | --- | --- | --- | --- | --- | --- | --- | --- | --- | --- | --- | --- | --- | --- | --- | --- |
| CN(C)c1ccc(/C=C2\N=C(NN)NC2=O)cc1 | 26.7 µM (inactive) | > 100 µM (inactive) | > 100 µM (inactive) | 98.2 µM (inactive) | 35.2 µM (inactive) | 86.3 µM (inactive) | > 100 µM (inactive) | > 100 µM (inactive) | > 100 µM (inactive) | 80.9 µM (inactive) | 49.3 µM (inactive) | > 100 µM (inactive) | 23.4 µM (inactive) | > 100 µM (inactive) | > 100 µM (inactive) | 94.6 µM (inactive) | 47.6 µM (inactive) | > 100 µM (inactive) | 75.5 µM (inactive) | > 100 µM (inactive) |
| N#CC(/C(=N/NC(N)=S)C(=O)Nc1cccc(Cl)c1)c1ccccc1 (stereo not given) | > 100 µM (inactive) | > 100 µM (inactive) | > 100 µM (inactive) | > 100 µM (inactive) | > 100 µM (inactive) | > 100 µM (inactive) | > 100 µM (inactive) | > 100 µM (inactive) | > 100 µM (inactive) | > 100 µM (inactive) | > 100 µM (inactive) | 38.8 µM (inactive) | > 100 µM (inactive) | > 100 µM (inactive) | > 100 µM (inactive) | > 100 µM (inactive) | > 100 µM (inactive) | > 100 µM (inactive) | > 100 µM (inactive) | > 100 µM (inactive) |
| C1=C[C@@H]2c3ccc4cnccc4c3NC[C@@H]2C1 | > 100 µM (inactive) | > 100 µM (inactive) | > 100 µM (inactive) | > 100 µM (inactive) | > 100 µM (inactive) | > 100 µM (inactive) | > 100 µM (inactive) | > 100 µM (inactive) | > 100 µM (inactive) | > 100 µM (inactive) | > 100 µM (inactive) | > 100 µM (inactive) | > 100 µM (inactive) | > 100 µM (inactive) | > 100 µM (inactive) | 74.3 µM (inactive) | > 100 µM (inactive) | 58.2 µM (inactive) | > 100 µM (inactive) | > 100 µM (inactive) |
| COC(=O)C1C(=O)C(C(=O)OC)C2CCC1N2C (stereo not given) | 19.9 µM (inactive) | 28.4 µM (inactive) | 62.4 µM (inactive) | 36.5 µM (inactive) | 33.5 µM (inactive) | 18.3 µM (inactive) | > 100 µM (inactive) | > 100 µM (inactive) | 41 µM (inactive) | > 100 µM (inactive) | 35 µM (inactive) | 35.2 µM (inactive) | 32.1 µM (inactive) | 34.4 µM (inactive) | > 100 µM (inactive) | 59.8 µM (inactive) | 56.1 µM (inactive) | 40.3 µM (inactive) | 22.9 µM (inactive) | 36.2 µM (inactive) |
| Cc1cc(O)c2c(c1)CC(O)C1=C2C(=O)c2c(O)ccc(OC3CC(O)C(OC4CC(OC5CCC(O)C(C)O5)C(O)C(C)O4)C(C)O3)c2C1=O (stereo not given) | 0.386 µM (active) | 2.33 µM (inactive) | 2.17 µM (inactive) | 0.518 µM (active) | 1.85 µM (inactive) | 0.662 µM (active) | 2.34 µM (inactive) | 3.81 µM (inactive) | 1.58 µM (inactive) | 1.85 µM (inactive) | 0.53 µM (active) | 2.74 µM (inactive) | 0.324 µM (active) | 1.92 µM (inactive) | 1.39 µM (inactive) | 1.5 µM (inactive) | 1.32 µM (inactive) | 1.68 µM (inactive) | 1.47 µM (inactive) | 1.59 µM (inactive) |
| O=C(OCCNC(=O)N1CC1)OCCNC(=O)N1CC1 | > 10 µM (inactive) | > 10 µM (inactive) | > 10 µM (inactive) | > 10 µM (inactive) | > 10 µM (inactive) | > 10 µM (inactive) | > 10 µM (inactive) | > 10 µM (inactive) | > 10 µM (inactive) | > 10 µM (inactive) | > 10 µM (inactive) | > 10 µM (inactive) | > 10 µM (inactive) | > 10 µM (inactive) | > 10 µM (inactive) | > 10 µM (inactive) | > 10 µM (inactive) | > 10 µM (inactive) | > 10 µM (inactive) | > 10 µM (inactive) |
| O=c1[nH]c(=S)[nH]cc1CN1CCOCC1 | > 100 µM (inactive) | > 100 µM (inactive) | > 100 µM (inactive) | > 100 µM (inactive) | > 100 µM (inactive) | > 100 µM (inactive) | > 100 µM (inactive) | > 100 µM (inactive) | > 100 µM (inactive) | > 100 µM (inactive) | > 100 µM (inactive) | > 100 µM (inactive) | > 100 µM (inactive) | > 100 µM (inactive) | > 100 µM (inactive) | > 100 µM (inactive) | > 100 µM (inactive) | > 100 µM (inactive) | > 100 µM (inactive) | > 100 µM (inactive) |
